Measurements reported in patent publication US12404244B2, “Pan-KIT kinase inhibitor having quinoline structure and application thereof” (Tarapeutics Science Inc., priority 2018, dated 2025).

Key:
Assay type in all cases: in vivo
Conditions in all cases: oral, every day
[1] = system: GIST-T1-T670I mouse tumor model; assay: Tumor-grafted mouse model established with GIST-T1-T670I cells
Description: (§1) In this example Compound 1 and Compound 2 were respectively tested in TEL-cKIT/T670I-BaF3, TEL-cKIT/Y823D-BaF3, TEL-cKIT/D820G-BaF3 and GIST-T1-T670I mouse models.
(§2) Experimental protocols were as follows. • (1) Bal b/c female mice aged 4-6 weeks were purchased from Beijing Weitong Lihua Laboratory Animal Co., Ltd., and the mice were raised in an SPF laboratory. The drinking water and padding were sterilized by autoclaving. All operations on mice were conducted under aseptic conditions. • (2) About 5×10^6 TEL-cKIT/T670I-BaF3, TEL-cKIT/Y823D-BaF3, TEL-cKIT/D820G-BaF3 or GIST-T1-T670I cells were respectively injected subcutaneously onto the left back of all mice on Day 0. • (3) From Day 6, for the TEL-cKIT/T670I-BaF3 mouse model the corresponding mice were administrated orally every day with methylcellulose (HKI) as the vehicle (5 mice); with Compound 1 and Compound 2 at a dosage of 10 mg/kg, 20 mg/kg, 40 mg/kg, 100 mg/kg mouse weight (5 mice in each group); and with Sunitnib (purchased from MedChemExpress, China) at a dosage of 40 mg/kg mouse weight (5 mice). From day 6, for the TEL-cKIT/Y823D-BaF3 and TEL-cKIT/D820G-BaF3 mouse models the corresponding mice were administrated orally every day with methylcellulose (HKI) as the vehicle (5 mice); with Compound 1 and Compound 2 at a dosage of 40 mg/kg, 80 mg/kg mouse weight (5 mice in each group); and with Sunitnib (purchased from MedChemExpress, China) at a dosage of 40 mg/kg mouse weight (5 mice). From day 15, for the GIST-T1-T670I mouse model the corresponding mice were administrated orally every day with methylcellulose (HKI) as the vehicle (5 mice); with Compound 1 and Compound 2 at a dosage of 20 mg/kg, 40 mg/kg, 80 mg/kg mouse weight (5 mice in each group); and with Sunitnib at a dosage of 40 mg/kg mouse weight (5 mice). • (4) From day 6 (TEL-cKIT/T670I-BaF3, TEL-cKIT/Y823D-BaF3, TEL-cKIT/D820G-BaF3 mouse model) and From day 15 (GIST-T1-T670I mouse model), respectively, the length/width of the subcutaneous tumor were measured with a vernier caliper every day and the body weight of the mouse was recorded every day so as to determine the effects of Compound 1 and Compound 2 on the body weight and tumor size of the mice, respectively. • (5) The mice were sacrificed on Day 11 after administration for the TEL-cKIT/T670I-BaF3 mouse model, on Day 9 after administration for the TEL-cKIT/Y823D-BaF3 and TEL-cKIT/D820G-BaF3 mouse models, and on Day 28 after administration for the GIST-T1-T670I mouse model. The subcutaneous tumors were taken out, and the tumors were weighed and compared. • (6) The growth trend of subcutaneous tumors was calculated and the tumor size was calculated according to: length×width×width/2 mm^3.

[2] = system: TEL-cKIT/T670I-BaF3 mouse tumor model; assay: Tumor-grafted mouse model established with TEL-cKIT/T670I-BaF3 cells
Description: as §1, §2

[3] = system: TEL-cKIT/Y823D-BaF3 mouse tumor model; assay: Tumor-grafted mouse model established with TEL-cKIT/Y823D-BaF3 cells
Description: as §1, §2

[4] = system: TEL-cKIT/D820G-BaF3 mouse tumor model; assay: Tumor-grafted mouse model established with TEL-cKIT/D820G-BaF3 cells
Description: as §1, §2

SMILES | inhibitory effects against tumor in mice ([1]; 40 mg/kg) | influence on mice weight [1] | inhibitory effects against tumor in mice ([2]; 40 mg/kg) | influence on mice weight [2] | inhibitory effects against tumor in mice ([3]; 40 mg/kg) | influence on mice weight [3] | inhibitory effects against tumor in mice ([4]; 40 mg/kg) | influence on mice weight [4] | tumor inhibition rate ([1]; 40 mg/kg) | tumor inhibition rate ([2]; 40 mg/kg) | tumor inhibition rate ([3]; 40 mg/kg) | tumor inhibition rate ([4]; 40 mg/kg)
COc1cc2nccc(Oc3ccc(NC(=O)Cc4ccc(C)c(C(F)(F)F)c4)cc3)c2cc1OC [Example 1, N-(4-((6,7-dimethoxyquinolin-4-yl)oxy)phenyl)-2-(4-methyl-3-(trifluoromethyl)phenyl)acetamide] | excellent inhibitory effects against tumor in mice | without significant influence on mice weight | excellent inhibitory effects against tumor in mice | without significant influence on mice weight | excellent inhibitory effects against tumor in mice | without significant influence on mice weight | excellent inhibitory effects against tumor in mice | without significant influence on mice weight | – | – | – | –
COc1cc2nccc(Oc3ccc(NC(=O)Cc4ccc(Cl)c(C(F)(F)F)c4)cc3)c2cc1OC [Example 2, N-(4-((6,7-dimethoxyquinolin-4-yl)oxy)phenyl)-2-(4-chloro-3-(trifluoromethyl)phenyl)-acetamide] | excellent inhibitory effects against tumor in mice | without significant influence on mice weight | excellent inhibitory effects against tumor in mice | without significant influence on mice weight | excellent inhibitory effects against tumor in mice | without significant influence on mice weight | excellent inhibitory effects against tumor in mice | without significant influence on mice weight | ≥ 80% | ≥ 80% | ≥ 80% | ≥ 80%
